Assay results from patent publication US10829520B2, “Beta-hairpin peptidomimetics” (POLYPHOR AG, priority 2015, dated 2020).
*1 amine or outer side, *2 acyl side, *3 side chain or, on linkers, in order; H or OH if unused. Where a SMILES comes first, the peptide text is derived from it. Bridges are numbered along the chain shown (N, C = ends). [ ]: non-standard residue; d: D form. The star is where a group is joined. NαAmidinoTrp = N=C(N)N[C@@H](Cc1c[nH]c2ccccc12)C(=O)*; X1 = CC(C)NC[C@H](N[*:1])C(=O)[*:2]; Cha = N[C@@H](CC1CCCCC1)C(=O)O; Tle = CC(C)(C)[C@H](N)C(=O)O; dDab = NCC[C@@H](N)C(=O)O; Nle = CCCC[C@H](N)C(=O)O; Orn = NCCC[C@H](N)C(=O)O; Dab = NCC[C@H](N)C(=O)O; Dap = NC[C@H](N)C(=O)O; Sar = CNCC(=O)O

Legend:
Format in all cases: cell-based
[1] = system: Acinetobacter baumannii 872842; conditions: 872842
[2] = system: Acinetobacter baumannii DSM 30008; conditions: DSM 30008
How it was run: (§1)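 MIC in μg/mL; CLSI microdilution; cation-adjusted Mueller-Hinton II with Polysorbate 80 (0.002%); 10^6 CFU/mL; 35° C, 18-20 h.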

Escherichia coli 926415 = conditions: 926415
[3] = system: Escherichia coli ATCC 25922; conditions: ATCC 25922
How it was run: as §1

[4] = system: Klebsiella pneumoniae 968733; conditions: 968733
[5] = system: Klebsiella pneumoniae SSI #3010; conditions: SSI #3010
How it was run: as §1

[6] = system: Pseudomonas aeruginosa ATCC 27853; conditions: ATCC 27853
How it was run: as §1

[7] = system: human red blood cells (hRBC); assay: Hemolysis of human red blood cells; conditions: red cells of human, 1 h, 100 μg/mL
How it was run: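 Fresh human red blood cells are washed in PBS, then shaken with peptide (100 μg/mL) at 37° C. for 1 h, final erythrocyte density about 0.9×10^9 cells/mL. After centrifugation, diluted supernatants are read at 540 nm against buffer (0%) and Triton X-100 (100%) lysis controls.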

| Structure (SMILES) | Acinetobacter baumannii 872842 MIC [1] | Acinetobacter baumannii DSM 30008 MIC [2] | Escherichia coli 926415 MIC (Escherichia coli 926415) | Escherichia coli ATCC 25922 MIC [3] | Klebsiella pneumoniae 968733 MIC [4] | Klebsiella pneumoniae SSI #3010 MIC [5] | Pseudomonas aeruginosa ATCC 27853 MIC [6] | Hemolysis at 100 μg/mL [7] |
| --- | --- | --- | --- | --- | --- | --- | --- | --- |
| CC(C)C[C@@H]1NC(=O)[C@@H](CC(C)C)NC(=O)[C@H](CCN)NC(=O)[C@@H](NC(=O)[C@H](CCN)NC(=O)[C@@H](NC(=O)[C@H](CCN)NC(=O)[C@@H](C)NC(=O)[C@@H]2CSSC[C@H](NC(=O)[C@H](Cc3c[nH]c4ccccc34)NC(=N)N)C(=O)N[C@@H](C(C)C)C(=O)N[C@@H](C)C(=O)N[C@@H](CO)C(=O)N3CCC[C@@H]3C(=O)N3CCC[C@H]3C(=O)N[C@@H](CC(C)C)C(=O)N[C@@H](CO)C(=O)N[C@@H](Cc3ccc(O)cc3)C(=O)N2)[C@@H](C)O)CCNC(=O)[C@H]([C@@H](C)O)NC(=O)[C@H](CCN)NC(=O)[C@H](CCN)NC1=O [Ex. 135] (NαAmidinoTrp-CVAS[dP]PLSYC[dA][Dab]T[Dab][Dab][Dab][dL]L[Dab][Dab]T; disulfide 1-10; lactam 15-C) | 0.5 mg/L | 0.25 mg/L | 1 mg/L | 0.125 mg/L | 8 mg/L | 0.5 mg/L | 0.5 mg/L | 1% |
| CC(C)C[C@@H]1NC(=O)[C@@H](CC(C)C)NC(=O)[C@H](CCN)NC(=O)[C@@H](NC(=O)[C@H](CCN)NC(=O)[C@@H](CCN)NC(=O)[C@@H](NC(=O)[C@H](CCCN)NC(=O)[C@@H]2CSSC[C@H](NC(=O)[C@@H](N)Cc3c[nH]c4ccccc34)C(=O)N[C@@H](C(C)C)C(=O)NCC(=O)N[C@@H](CO)C(=O)N3CCC[C@@H]3C(=O)N3CCC[C@H]3C(=O)N[C@@H](C(C)C)C(=O)N[C@@H](CN)C(=O)N[C@@H](Cc3ccc(O)cc3)C(=O)N2)[C@@H](C)O)CCNC(=O)[C@H]([C@@H](C)O)NC(=O)[C@H](CCN)NC(=O)[C@H](CCN)NC1=O [Ex. 136] (H-WCVGS[dP]PV[Dap]YC[Orn]T[dDab][Dab][Dab][Dab][dL]L[Dab][Dab]T; disulfide 2-11; lactam 16-C) | 0.25 mg/L | 1 mg/L | 0.5 mg/L | 0.5 mg/L | 4 mg/L | 1 mg/L | 0.25 mg/L | <1% |
| CC(=O)N[C@@H](Cc1c[nH]c2ccccc12)C(=O)N[C@H]1CSSC[C@@H](C(=O)N[C@@H](CCCN)C(=O)N[C@H](CCN)C(=O)N[C@@H](CCN)C(=O)N[C@@H](CCN)C(=O)N[C@H]2CCNC(=O)[C@H]([C@@H](C)O)NC(=O)[C@H](CCN)NC(=O)[C@H](CCN)NC(=O)[C@H](CC(C)C)NC(=O)[C@@H](Cc3ccccc3)NC(=O)[C@H](CCN)NC2=O)NC(=O)[C@H](Cc2ccc(O)cc2)NC(=O)[C@H](CN)NC(=O)[C@H](Cc2ccccc2)NC(=O)[C@H](Cc2ccccc2)NC(=O)[C@H]2CCCN2C(=O)[C@H](CO)NC(=O)[C@H](C)NC(=O)[C@H](C(C)(C)C)NC1=O [Ex. 137] (Ac-WC[Tle]AS[dP]FF[Dap]YC[Orn][dDab][Dab][Dab][Dab][Dab][dF]L[Dab][Dab]T; disulfide 2-11; lactam 16-C) | 0.5 mg/L | 0.5 mg/L | 0.5 mg/L | 0.25 mg/L | 0.5 mg/L | 0.5 mg/L | 1 mg/L | 4% |
| CC(=O)N[C@@H](Cc1c[nH]c2ccccc12)C(=O)N[C@H]1CSSC[C@@H](C(=O)N[C@@H](CCCN)C(=O)N[C@H](C(=O)N[C@@H](CCN)C(=O)N[C@@H](CCN)C(=O)N[C@H]2CCNC(=O)[C@H]([C@@H](C)O)NC(=O)[C@H](CCN)NC(=O)[C@H](CCN)NC(=O)[C@H](CC(C)C)NC(=O)[C@@H](Cc3ccccc3)NC(=O)[C@H](CCN)NC2=O)[C@@H](C)O)NC(=O)[C@H](Cc2ccc(O)cc2)NC(=O)[C@H](Cc2c[nH]cn2)NC(=O)[C@H](Cc2c[nH]c3ccccc23)NC(=O)[C@@H]2CCCN2C(=O)[C@H]2CCCN2C(=O)[C@H](CO)NC(=O)[C@H](C)NC(=O)[C@H](C(C)(C)C)NC1=O [Ex. 138] (Ac-WC[Tle]AS[dP]PWHYC[Orn]T[Dab][Dab][Dab][Dab][dF]L[Dab][Dab]T; disulfide 2-11; lactam 16-C) | 1 mg/L | 0.5 mg/L | 4 mg/L | 0.25 mg/L | 2 mg/L | 0.5 mg/L | 4 mg/L | 3% |
| CC(=O)N[C@@H](Cc1c[nH]c2ccccc12)C(=O)N[C@H]1CSSC[C@@H](C(=O)N[C@@H](CCCN)C(=O)N[C@H](C(=O)N[C@@H](CCN)C(=O)N[C@@H](CCN)C(=O)N[C@H]2CCNC(=O)[C@H]([C@@H](C)O)NC(=O)[C@H](CCN)NC(=O)[C@H](CCN)NC(=O)[C@H](CC(C)C)NC(=O)[C@@H](Cc3ccccc3)NC(=O)[C@H](CCN)NC2=O)[C@@H](C)O)NC(=O)[C@H](CC2CCCCC2)NC(=O)[C@H](CNC(C)C)NC(=O)[C@H](Cc2c[nH]c3ccccc23)NC(=O)[C@@H]2CCCN2C(=O)[C@H]2CCCN2C(=O)[C@H](CO)NC(=O)[C@H](C)NC(=O)[C@H](C(C)(C)C)NC1=O [Ex. 139] (Ac-WC[Tle]AS[dP]PW[X1][Cha]C[Orn]T[Dab][Dab][Dab][Dab][dF]L[Dab][Dab]T; disulfide 2-11; lactam 16-C) | 2 mg/L | 1 mg/L | 1 mg/L | 2 mg/L | 4 mg/L | 2 mg/L | 2 mg/L | 4% |
| CC(C)C[C@@H]1NC(=O)[C@@H](CC(C)C)NC(=O)[C@H](CCN)NC(=O)[C@@H](NC(=O)[C@H](CCN)NC(=O)[C@@H](NC(=O)[C@H](CCN)NC(=O)CN(C)C(=O)[C@@H]2CSSC[C@H](NC(=O)[C@@H](N)Cc3c[nH]c4ccccc34)C(=O)N[C@@H](C(C)(C)C)C(=O)N[C@@H](Cc3ccc(O)cc3)C(=O)N[C@@H](CO)C(=O)N3CCC[C@@H]3C(=O)N3CCC[C@H]3C(=O)N[C@@H](CC(C)C)C(=O)N[C@@H](CN)C(=O)N[C@@H](Cc3ccc(O)cc3)C(=O)N2)[C@@H](C)O)CCNC(=O)[C@H]([C@@H](C)O)NC(=O)[C@H](CCN)NC(=O)[C@H](CCN)NC1=O [Ex. 140] (H-WC[Tle]YS[dP]PL[Dap]YC[Sar][Dab]T[Dab][Dab][Dab][dL]L[Dab][Dab]T; disulfide 2-11; lactam 16-C) | 0.125 mg/L | 0.125 mg/L | 0.125 mg/L | 0.0625 mg/L | 1 mg/L | 0.0625 mg/L | 0.5 mg/L | <1% |
| CCCC[C@@H]1NC(=O)[C@@H]2CCCN2C(=O)[C@H]2CCCN2C(=O)[C@H](C)NC(=O)[C@H](CO)NC(=O)[C@H](C(C)C)NC(=O)[C@@H](NC(=O)[C@@H](N)Cc2c[nH]c3ccccc23)CSSC[C@@H](C(=O)N(C)CC(=O)N[C@@H](CCN)C(=O)N[C@H](C(=O)N[C@@H](CCN)C(=O)N[C@H]2CCNC(=O)[C@H]([C@@H](C)O)NC(=O)[C@H](CCN)NC(=O)[C@H](CCN)NC(=O)[C@H](CC(C)C)NC(=O)[C@@H](CC(C)C)NC(=O)[C@H](CCN)NC2=O)[C@@H](C)O)NC(=O)[C@H](Cc2ccc(O)cc2)NC(=O)[C@H](CN)NC1=O [Ex. 141] (H-WCVSA[dP]P[Nle][Dap]YC[Sar][Dab]T[Dab][Dab][Dab][dL]L[Dab][Dab]T; disulfide 2-11; lactam 16-C) | 0.125 mg/L | 0.125 mg/L | 0.125 mg/L | 0.0625 mg/L | 2 mg/L | 0.125 mg/L | 2 mg/L | <1% |
